Legend:
[1] = biological target: Tyrosine-protein kinase Blk (Homo sapiens) (UniProt P51451); settings: at 10 µM
[2] = biological target: T1, Bromodomain-containing protein 1 (Homo sapiens) (UniProt O95696); test: Selectivity interaction (Bromodomain panel (DSF asssay)) EUB0000270b BRD1
T1 sequence (whole entry): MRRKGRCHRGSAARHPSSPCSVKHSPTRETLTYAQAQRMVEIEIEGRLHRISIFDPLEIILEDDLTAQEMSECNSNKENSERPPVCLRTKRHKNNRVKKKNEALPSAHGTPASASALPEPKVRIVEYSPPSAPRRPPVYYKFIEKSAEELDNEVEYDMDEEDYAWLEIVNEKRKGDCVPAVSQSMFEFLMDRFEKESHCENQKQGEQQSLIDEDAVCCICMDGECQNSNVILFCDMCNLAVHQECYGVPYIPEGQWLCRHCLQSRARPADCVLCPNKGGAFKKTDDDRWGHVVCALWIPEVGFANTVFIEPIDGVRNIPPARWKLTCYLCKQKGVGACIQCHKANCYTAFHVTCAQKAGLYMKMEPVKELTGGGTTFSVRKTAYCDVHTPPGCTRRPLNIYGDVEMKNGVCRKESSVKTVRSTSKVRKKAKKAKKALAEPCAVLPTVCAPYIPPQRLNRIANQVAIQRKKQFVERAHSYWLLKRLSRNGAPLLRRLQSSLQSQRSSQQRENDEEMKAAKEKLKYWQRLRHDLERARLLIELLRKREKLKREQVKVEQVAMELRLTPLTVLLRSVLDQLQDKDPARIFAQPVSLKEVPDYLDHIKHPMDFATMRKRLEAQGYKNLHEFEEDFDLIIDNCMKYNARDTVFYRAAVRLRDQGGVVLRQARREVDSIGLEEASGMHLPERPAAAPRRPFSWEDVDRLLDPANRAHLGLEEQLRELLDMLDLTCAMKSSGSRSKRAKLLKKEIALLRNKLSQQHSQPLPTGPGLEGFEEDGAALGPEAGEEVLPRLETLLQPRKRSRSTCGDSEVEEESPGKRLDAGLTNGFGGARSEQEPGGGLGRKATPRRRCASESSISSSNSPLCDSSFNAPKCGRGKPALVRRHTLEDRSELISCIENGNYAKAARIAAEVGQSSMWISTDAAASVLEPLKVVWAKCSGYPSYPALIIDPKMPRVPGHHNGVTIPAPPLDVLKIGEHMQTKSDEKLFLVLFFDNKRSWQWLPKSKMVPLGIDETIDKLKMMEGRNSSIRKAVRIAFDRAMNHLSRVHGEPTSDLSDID

[3] = biological target: Epidermal growth factor receptor (Homo sapiens, UniProt P00533); test: Selectivity interaction (Kinase screening (Nanosyn)) EUB0000604a EGFR
[4] = biological target: T2, Serine/threonine-protein kinase LATS1 (Homo sapiens) (UniProt O95835); test: Selectivity interaction (KinomeScan (DiscoverX)) EUB0000045b LATS1
T2 sequence (whole entry): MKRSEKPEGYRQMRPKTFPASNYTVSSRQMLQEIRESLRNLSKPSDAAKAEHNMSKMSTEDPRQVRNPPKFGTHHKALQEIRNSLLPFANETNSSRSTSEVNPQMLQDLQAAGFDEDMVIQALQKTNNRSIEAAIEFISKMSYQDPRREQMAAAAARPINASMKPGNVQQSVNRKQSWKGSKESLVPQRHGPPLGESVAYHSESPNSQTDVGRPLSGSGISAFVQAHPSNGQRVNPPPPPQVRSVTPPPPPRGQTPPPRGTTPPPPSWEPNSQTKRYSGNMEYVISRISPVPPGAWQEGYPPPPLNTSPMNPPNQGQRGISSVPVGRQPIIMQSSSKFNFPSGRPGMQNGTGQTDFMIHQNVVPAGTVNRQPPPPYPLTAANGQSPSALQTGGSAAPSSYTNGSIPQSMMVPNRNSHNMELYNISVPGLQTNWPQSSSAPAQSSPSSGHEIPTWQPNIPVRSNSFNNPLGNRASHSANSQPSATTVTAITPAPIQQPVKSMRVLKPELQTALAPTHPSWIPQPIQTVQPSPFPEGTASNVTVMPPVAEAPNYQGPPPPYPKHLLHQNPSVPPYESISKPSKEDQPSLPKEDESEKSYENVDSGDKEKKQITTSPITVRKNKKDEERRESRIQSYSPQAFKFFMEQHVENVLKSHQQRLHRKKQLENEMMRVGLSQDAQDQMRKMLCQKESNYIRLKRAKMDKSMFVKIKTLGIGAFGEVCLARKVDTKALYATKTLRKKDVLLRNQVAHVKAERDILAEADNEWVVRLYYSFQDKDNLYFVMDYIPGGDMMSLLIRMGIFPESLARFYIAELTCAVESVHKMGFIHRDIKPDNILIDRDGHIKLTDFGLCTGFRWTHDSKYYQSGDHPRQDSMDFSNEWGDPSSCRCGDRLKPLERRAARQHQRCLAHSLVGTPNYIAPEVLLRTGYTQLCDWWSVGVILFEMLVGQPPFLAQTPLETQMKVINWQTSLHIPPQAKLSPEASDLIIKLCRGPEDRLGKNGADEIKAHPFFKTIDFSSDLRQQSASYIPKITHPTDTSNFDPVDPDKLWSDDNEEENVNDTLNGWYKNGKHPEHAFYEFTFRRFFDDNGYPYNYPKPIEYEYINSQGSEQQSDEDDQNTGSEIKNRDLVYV

[5] = biological target: T3, cAMP-dependent protein kinase catalytic subunit PRKX (Homo sapiens) (UniProt P51817); settings: at 10 µM
T3 sequence (whole entry): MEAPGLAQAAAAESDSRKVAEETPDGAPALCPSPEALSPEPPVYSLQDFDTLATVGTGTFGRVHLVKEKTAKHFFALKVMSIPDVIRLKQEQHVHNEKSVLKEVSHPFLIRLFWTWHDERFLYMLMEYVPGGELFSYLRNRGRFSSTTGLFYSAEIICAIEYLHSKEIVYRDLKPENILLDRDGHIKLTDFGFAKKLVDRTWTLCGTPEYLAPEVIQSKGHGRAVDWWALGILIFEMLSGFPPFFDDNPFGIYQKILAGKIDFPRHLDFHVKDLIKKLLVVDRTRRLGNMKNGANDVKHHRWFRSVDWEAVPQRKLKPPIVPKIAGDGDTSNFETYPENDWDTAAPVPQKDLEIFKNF

[6] = biological target: Serine/threonine-protein kinase Chk2 (Homo sapiens) (UniProt O96017); test: Selectivity interaction (ActivX KiNativ screen (ex vivo kinase selectivity in human PBMCs)) EUB0001619a CHEK2; assay type: cell-based; settings: PBMC, at 1 µM
[7] = biological target: Maternal embryonic leucine zipper kinase (Homo sapiens) (UniProt Q14680); test: Selectivity interaction (Upstate Kinase Profiler service (Millipore)) EUB0000056c MELK; settings: at 1 µM
Sequence of Maternal embryonic leucine zipper kinase (Homo sapiens) (Q14680 whole entry, looked up): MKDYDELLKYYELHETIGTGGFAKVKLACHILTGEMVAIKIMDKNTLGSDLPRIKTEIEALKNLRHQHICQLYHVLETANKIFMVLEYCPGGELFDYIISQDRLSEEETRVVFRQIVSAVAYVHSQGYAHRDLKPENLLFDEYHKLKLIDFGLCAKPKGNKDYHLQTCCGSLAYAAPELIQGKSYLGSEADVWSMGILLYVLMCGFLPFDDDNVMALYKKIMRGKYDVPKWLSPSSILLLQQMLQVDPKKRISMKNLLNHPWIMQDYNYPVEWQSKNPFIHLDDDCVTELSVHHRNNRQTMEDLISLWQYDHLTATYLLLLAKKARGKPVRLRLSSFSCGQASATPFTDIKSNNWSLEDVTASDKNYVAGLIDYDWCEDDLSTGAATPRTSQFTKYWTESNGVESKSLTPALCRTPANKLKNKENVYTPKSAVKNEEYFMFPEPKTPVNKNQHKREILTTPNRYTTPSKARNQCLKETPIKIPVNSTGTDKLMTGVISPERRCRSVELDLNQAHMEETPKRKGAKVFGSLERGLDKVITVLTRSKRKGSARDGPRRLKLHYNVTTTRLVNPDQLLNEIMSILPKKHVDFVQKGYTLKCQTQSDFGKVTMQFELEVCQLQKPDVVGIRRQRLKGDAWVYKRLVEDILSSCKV

Sequence of Serine/threonine-protein kinase Chk2 (Homo sapiens) (O96017 whole entry): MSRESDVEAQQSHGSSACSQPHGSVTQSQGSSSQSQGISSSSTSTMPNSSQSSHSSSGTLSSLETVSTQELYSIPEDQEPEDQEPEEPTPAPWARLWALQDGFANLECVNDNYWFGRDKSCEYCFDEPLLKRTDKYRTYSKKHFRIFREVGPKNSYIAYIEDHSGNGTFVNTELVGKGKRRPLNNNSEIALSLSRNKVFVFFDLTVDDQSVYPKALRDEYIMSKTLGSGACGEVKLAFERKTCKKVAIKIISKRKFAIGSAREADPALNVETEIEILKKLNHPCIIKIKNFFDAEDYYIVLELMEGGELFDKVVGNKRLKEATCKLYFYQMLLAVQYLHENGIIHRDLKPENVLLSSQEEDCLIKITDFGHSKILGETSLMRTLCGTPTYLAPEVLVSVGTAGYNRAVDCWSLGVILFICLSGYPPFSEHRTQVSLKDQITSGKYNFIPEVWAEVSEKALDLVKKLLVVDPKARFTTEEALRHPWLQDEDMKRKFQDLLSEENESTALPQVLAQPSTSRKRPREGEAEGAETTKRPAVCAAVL
Sequence of Epidermal growth factor receptor (P00533 whole entry): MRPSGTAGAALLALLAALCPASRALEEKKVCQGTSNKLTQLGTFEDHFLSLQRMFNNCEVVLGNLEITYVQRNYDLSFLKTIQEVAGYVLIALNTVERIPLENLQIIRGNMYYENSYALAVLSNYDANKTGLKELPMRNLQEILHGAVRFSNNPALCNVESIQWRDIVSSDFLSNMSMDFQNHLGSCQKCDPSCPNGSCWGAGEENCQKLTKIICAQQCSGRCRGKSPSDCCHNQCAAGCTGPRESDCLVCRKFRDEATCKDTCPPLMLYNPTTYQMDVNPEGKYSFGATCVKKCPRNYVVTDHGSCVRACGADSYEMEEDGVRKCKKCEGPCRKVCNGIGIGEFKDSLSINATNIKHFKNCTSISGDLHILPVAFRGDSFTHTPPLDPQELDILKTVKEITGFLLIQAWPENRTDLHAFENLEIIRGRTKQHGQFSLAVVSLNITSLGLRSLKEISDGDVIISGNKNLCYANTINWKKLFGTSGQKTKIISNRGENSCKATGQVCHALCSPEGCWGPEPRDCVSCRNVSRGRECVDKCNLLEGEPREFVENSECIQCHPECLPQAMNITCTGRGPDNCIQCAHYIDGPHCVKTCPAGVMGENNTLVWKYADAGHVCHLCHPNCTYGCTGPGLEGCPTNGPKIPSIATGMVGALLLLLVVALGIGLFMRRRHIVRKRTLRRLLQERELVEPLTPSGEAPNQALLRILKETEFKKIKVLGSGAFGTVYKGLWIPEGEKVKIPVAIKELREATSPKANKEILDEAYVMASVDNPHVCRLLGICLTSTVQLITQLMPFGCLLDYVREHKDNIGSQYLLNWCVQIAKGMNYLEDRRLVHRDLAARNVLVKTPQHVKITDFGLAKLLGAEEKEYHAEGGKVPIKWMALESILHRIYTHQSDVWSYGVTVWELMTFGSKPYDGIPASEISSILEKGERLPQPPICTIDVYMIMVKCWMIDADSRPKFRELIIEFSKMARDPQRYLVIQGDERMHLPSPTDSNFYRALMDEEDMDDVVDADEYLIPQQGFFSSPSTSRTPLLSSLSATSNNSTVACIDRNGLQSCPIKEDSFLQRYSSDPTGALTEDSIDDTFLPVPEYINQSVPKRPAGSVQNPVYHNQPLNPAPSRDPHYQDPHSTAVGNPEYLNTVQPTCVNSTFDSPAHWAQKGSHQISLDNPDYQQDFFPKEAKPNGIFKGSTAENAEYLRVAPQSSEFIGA
Sequence of Tyrosine-protein kinase Blk (Homo sapiens) (P51451 2-505 limits assumed): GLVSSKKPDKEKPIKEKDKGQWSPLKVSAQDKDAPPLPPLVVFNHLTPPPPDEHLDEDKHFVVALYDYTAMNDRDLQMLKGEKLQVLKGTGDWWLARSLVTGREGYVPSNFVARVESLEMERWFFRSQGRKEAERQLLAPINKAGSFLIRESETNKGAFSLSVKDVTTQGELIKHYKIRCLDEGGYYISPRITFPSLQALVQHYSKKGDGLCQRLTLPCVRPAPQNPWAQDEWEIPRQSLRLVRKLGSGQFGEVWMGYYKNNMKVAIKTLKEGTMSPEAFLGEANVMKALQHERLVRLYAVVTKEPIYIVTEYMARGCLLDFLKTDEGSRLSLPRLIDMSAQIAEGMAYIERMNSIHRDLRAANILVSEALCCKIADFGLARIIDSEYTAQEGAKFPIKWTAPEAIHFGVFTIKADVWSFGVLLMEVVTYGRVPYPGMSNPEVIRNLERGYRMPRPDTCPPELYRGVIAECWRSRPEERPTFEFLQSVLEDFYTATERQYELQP

CCN(CC)CCCCNc1ncc2cc(-c3cc(OC)cc(OC)c3)c(NC(=O)NC(C)(C)C)nc2n1 was tested, and the % of control [1] was 100%.
Cc1cc(CN)cc(C)c1-c1ncn(C)c1-c1cncn1C was tested, and the dTM [2] was -2.24 K.
Cc1cnc(Nc2ccc(F)cc2Cl)nc1-c1c[nH]c(C(=O)N[C@H](CO)c2cccc(Cl)c2)c1 gave a % of inhibition [3] of 6%.
In the case of C=CC(=O)Nc1cc(-n2c(=O)ccc3cnc4ccc(-c5ccc(NS(C)(=O)=O)cc5)cc4c32)ccc1C, the % of control ([4]; at 1 µM) was 100% and the % of control ([4]; at 10 µM) was 100%.
Molecule Cc1cc([C@@H](C)Nc2ccccc2C(=O)O)c2nc(N3CCOCC3)cc(=O)n2c1 [AZD-6482] has a % of control [5] of 91%.
N#Cc1cccc(-c2c[nH]c3ncnc(N4CCOCC4)c23)c1 was tested, and the % of inhibition [6] was 2%.
Cc1ccc(-c2ccc3c(ccc4sc5c(c43)NC[C@@H](C)NC5=O)n2)cn1 gave a % of inhibition [7] of 10%.

Source: ChEMBL document CHEMBL5465560, “Selectivity Literature for EUbOPEN Chemogenomic Library” (2024)
